Results as given in PubChem BioAssay (NCI).
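Cultured in 96-well plates, cells were exposed to test compound for 48 hours across five concentrations. GI50 is the concentration that inhibits growth by half. TGI marks complete inhibition of growth.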

Assays:
Assay in all cases: inhibition of tumour cell growth, NCI panel, 48 h
786-0 renal = system: 786-0 renal
A498 renal = system: A498 renal
A549 NSCLC = system: A549 NSCLC
ACHN renal = system: ACHN renal
BT-549 breast = system: BT-549 breast
CAKI-1 renal = system: CAKI-1 renal
CCRF-CEM leukemia = system: CCRF-CEM leukemia
COLO 205 colon = system: COLO 205 colon
DU-145 prostate = system: DU-145 prostate
EKVX NSCLC = system: EKVX NSCLC
HCC-2998 colon = system: HCC-2998 colon
HCT-116 colon = system: HCT-116 colon
HCT-15 colon = system: HCT-15 colon
HL-60(TB) leukemia = system: HL-60(TB) leukemia
HOP-62 NSCLC = system: HOP-62 NSCLC
HOP-92 NSCLC = system: HOP-92 NSCLC
HS 578T breast = system: HS 578T breast
HT29 colon = system: HT29 colon
IGROV1 ovarian = system: IGROV1 ovarian
K-562 leukemia = system: K-562 leukemia
KM12 colon = system: KM12 colon
LOX IMVI melanoma = system: LOX IMVI melanoma
M14 melanoma = system: M14 melanoma
MALME-3M melanoma = system: MALME-3M melanoma
MCF7 breast = system: MCF7 breast
MDA-MB-231 breast = system: MDA-MB-231 breast
MDA-MB-435 = system: MDA-MB-435
MOLT-4 leukemia = system: MOLT-4 leukemia
NCI-H226 lung = system: NCI-H226 lung
NCI-H23 lung = system: NCI-H23 lung
NCI-H460 lung = system: NCI-H460 lung
NCI-H522 lung = system: NCI-H522 lung
NCI/ADR-RES ovarian = system: NCI/ADR-RES ovarian
OVCAR-3 ovarian = system: OVCAR-3 ovarian
OVCAR-4 ovarian = system: OVCAR-4 ovarian
OVCAR-5 ovarian = system: OVCAR-5 ovarian
OVCAR-8 ovarian = system: OVCAR-8 ovarian
PC-3 prostate = system: PC-3 prostate
RPMI-8226 leukemia = system: RPMI-8226 leukemia
RXF 393 renal = system: RXF 393 renal
SF-268 CNS = system: SF-268 CNS
SF-295 CNS = system: SF-295 CNS
SF-539 CNS = system: SF-539 CNS
SK-MEL-2 melanoma = system: SK-MEL-2 melanoma
SK-MEL-28 melanoma = system: SK-MEL-28 melanoma
SK-MEL-5 melanoma = system: SK-MEL-5 melanoma
SK-OV-3 ovarian = system: SK-OV-3 ovarian
SN12C renal = system: SN12C renal
SNB-19 CNS = system: SNB-19 CNS
SNB-75 CNS = system: SNB-75 CNS
SR leukemia = system: SR leukemia
SW-620 colon = system: SW-620 colon
T-47D breast = system: T-47D breast
TK-10 renal = system: TK-10 renal
U251 CNS = system: U251 CNS
UACC-257 melanoma = system: UACC-257 melanoma
UO-31 renal = system: UO-31 renal
UACC-62 melanoma = system: UACC-62 melanoma

Compound: Cc1cc(NCCCCNc2ccnc3cc(Cl)ccc23)nc(Nc2ccc(C(=O)N3CCCC3)cc2)n1
- GI50 (786-0 renal): 1.57 µM
- TGI (786-0 renal): 3.02 µM
- GI50 (A498 renal): 1.51 µM
- TGI (A498 renal): 7.09 µM
- GI50 (A549 NSCLC): 3.29 µM
- TGI (A549 NSCLC): 10.7 µM
- GI50 (ACHN renal): 3.6 µM
- TGI (ACHN renal): 11.3 µM
- GI50 (BT-549 breast): 1.83 µM
- TGI (BT-549 breast): 4.38 µM
- GI50 (CAKI-1 renal): 2.06 µM
- TGI (CAKI-1 renal): 5.6 µM
- GI50 (CCRF-CEM leukemia): 2.86 µM
- TGI (CCRF-CEM leukemia): > 100 µM
- GI50 (COLO 205 colon): 1.81 µM
- TGI (COLO 205 colon): 3.56 µM
- GI50 (DU-145 prostate): 3.49 µM
- TGI (DU-145 prostate): 13.4 µM
- GI50 (EKVX NSCLC): 4.28 µM
- TGI (EKVX NSCLC): 15.6 µM
- GI50 (HCC-2998 colon): 2.99 µM
- TGI (HCC-2998 colon): 8.36 µM
- GI50 (HCT-116 colon): 1.59 µM
- TGI (HCT-116 colon): 3.55 µM
- GI50 (HCT-15 colon): 2.28 µM
- TGI (HCT-15 colon): 6.75 µM
- GI50 (HL-60(TB) leukemia): 0.202 µM
- TGI (HL-60(TB) leukemia): 2.27 µM
- GI50 (HOP-62 NSCLC): 2.21 µM
- TGI (HOP-62 NSCLC): 4.74 µM
- GI50 (HOP-92 NSCLC): 1.58 µM
- TGI (HOP-92 NSCLC): 3.7 µM
- GI50 (HS 578T breast): 1.85 µM
- TGI (HS 578T breast): 4.74 µM
- GI50 (HT29 colon): 2.37 µM
- TGI (HT29 colon): 7.8 µM
- GI50 (IGROV1 ovarian): 3.58 µM
- TGI (IGROV1 ovarian): 13.4 µM
- GI50 (K-562 leukemia): 0.306 µM
- TGI (K-562 leukemia): 2.33 µM
- GI50 (KM12 colon): 3 µM
- TGI (KM12 colon): 11.3 µM
- GI50 (LOX IMVI melanoma): 1.48 µM
- TGI (LOX IMVI melanoma): 3.05 µM
- GI50 (M14 melanoma): 1.96 µM
- TGI (M14 melanoma): 3.87 µM
- GI50 (MALME-3M melanoma): 1.89 µM
- TGI (MALME-3M melanoma): 4.17 µM
- GI50 (MCF7 breast): 1.72 µM
- TGI (MCF7 breast): 5.02 µM
- GI50 (MDA-MB-231 breast): 2.14 µM
- TGI (MDA-MB-231 breast): 5.12 µM
- GI50 (MDA-MB-435): 1.79 µM
- TGI (MDA-MB-435): 3.35 µM
- GI50 (MOLT-4 leukemia): 2.81 µM
- TGI (MOLT-4 leukemia): 11.6 µM
- GI50 (NCI-H226 lung): 5.13 µM
- TGI (NCI-H226 lung): 18.2 µM
- GI50 (NCI-H23 lung): 3.7 µM
- TGI (NCI-H23 lung): 15.8 µM
- GI50 (NCI-H460 lung): 1.96 µM
- TGI (NCI-H460 lung): 4.98 µM
- GI50 (NCI-H522 lung): 2.16 µM
- TGI (NCI-H522 lung): 4.87 µM
- GI50 (NCI/ADR-RES ovarian): 16.4 µM
- TGI (NCI/ADR-RES ovarian): 72.8 µM
- GI50 (OVCAR-3 ovarian): 1.78 µM
- TGI (OVCAR-3 ovarian): 3.81 µM
- GI50 (OVCAR-4 ovarian): 2.32 µM
- TGI (OVCAR-4 ovarian): 11 µM
- GI50 (OVCAR-5 ovarian): 4.29 µM
- TGI (OVCAR-5 ovarian): 18 µM
- GI50 (OVCAR-8 ovarian): 3.14 µM
- TGI (OVCAR-8 ovarian): 11.2 µM
- GI50 (PC-3 prostate): 3.79 µM
- TGI (PC-3 prostate): 10.9 µM
- GI50 (RPMI-8226 leukemia): 1.34 µM
- TGI (RPMI-8226 leukemia): 5.3 µM
- GI50 (RXF 393 renal): 1.47 µM
- TGI (RXF 393 renal): 3.08 µM
- GI50 (SF-268 CNS): 2.1 µM
- TGI (SF-268 CNS): 6.21 µM
- GI50 (SF-295 CNS): 1.78 µM
- TGI (SF-295 CNS): 3.64 µM
- GI50 (SF-539 CNS): 1.74 µM
- TGI (SF-539 CNS): 3.54 µM
- GI50 (SK-MEL-2 melanoma): 2.18 µM
- TGI (SK-MEL-2 melanoma): 4.27 µM
- GI50 (SK-MEL-28 melanoma): 2 µM
- TGI (SK-MEL-28 melanoma): 4.12 µM
- GI50 (SK-MEL-5 melanoma): 1.7 µM
- TGI (SK-MEL-5 melanoma): 3.13 µM
- GI50 (SK-OV-3 ovarian): 3.49 µM
- TGI (SK-OV-3 ovarian): 9.11 µM
- GI50 (SN12C renal): 2.85 µM
- TGI (SN12C renal): 11.4 µM
- GI50 (SNB-19 CNS): 4.5 µM
- TGI (SNB-19 CNS): 18.1 µM
- GI50 (SNB-75 CNS): 1.91 µM
- TGI (SNB-75 CNS): 3.76 µM
- GI50 (SR leukemia): 0.267 µM
- TGI (SR leukemia): 1.37 µM
- GI50 (SW-620 colon): 1.7 µM
- TGI (SW-620 colon): 3.5 µM
- GI50 (T-47D breast): 2.64 µM
- TGI (T-47D breast): 6.76 µM
- GI50 (TK-10 renal): 1.84 µM
- TGI (TK-10 renal): 4.25 µM
- GI50 (U251 CNS): 2.08 µM
- TGI (U251 CNS): 4.8 µM
- GI50 (UACC-257 melanoma): 2.09 µM
- TGI (UACC-257 melanoma): 4.19 µM
- GI50 (UO-31 renal): 1.73 µM
- TGI (UO-31 renal): 4.16 µM

Compound: CC(=O)Nc1ccc2c(c1)C(=O)c1cccc(F)c1-2
- TGI (786-0 renal): > 100 µM
- GI50 (A498 renal): 31.3 µM
- TGI (A498 renal): > 100 µM
- TGI (A549 NSCLC): > 100 µM
- TGI (ACHN renal): > 100 µM
- TGI (BT-549 breast): > 100 µM
- TGI (CAKI-1 renal): > 100 µM
- TGI (CCRF-CEM leukemia): > 100 µM
- TGI (COLO 205 colon): > 100 µM
- TGI (DU-145 prostate): > 100 µM
- TGI (EKVX NSCLC): > 100 µM
- GI50 (HCC-2998 colon): > 100 µM
- TGI (HCC-2998 colon): > 100 µM
- TGI (HCT-116 colon): > 81.7 µM
- TGI (HCT-15 colon): > 80.1 µM
- TGI (HL-60(TB) leukemia): > 100 µM
- TGI (HOP-62 NSCLC): > 100 µM
- TGI (HOP-92 NSCLC): 97.7 µM
- TGI (HS 578T breast): > 100 µM
- TGI (HT29 colon): > 100 µM
- TGI (IGROV1 ovarian): > 100 µM
- TGI (K-562 leukemia): > 100 µM
- TGI (KM12 colon): > 35 µM
- TGI (LOX IMVI melanoma): > 100 µM
- TGI (M14 melanoma): > 100 µM
- TGI (MALME-3M melanoma): > 100 µM
- TGI (MCF7 breast): > 63.9 µM
- TGI (MDA-MB-231 breast): > 100 µM
- TGI (MDA-MB-435): > 100 µM
- TGI (MOLT-4 leukemia): > 100 µM
- TGI (NCI-H226 lung): > 100 µM
- TGI (NCI-H23 lung): > 100 µM
- TGI (NCI-H460 lung): > 100 µM
- TGI (NCI-H522 lung): > 100 µM
- TGI (NCI/ADR-RES ovarian): > 100 µM
- TGI (OVCAR-3 ovarian): > 100 µM
- TGI (OVCAR-4 ovarian): > 100 µM
- TGI (OVCAR-5 ovarian): > 100 µM
- TGI (OVCAR-8 ovarian): > 100 µM
- TGI (PC-3 prostate): > 100 µM
- TGI (RPMI-8226 leukemia): > 100 µM
- TGI (RXF 393 renal): > 91.2 µM
- TGI (SF-268 CNS): > 100 µM
- TGI (SF-295 CNS): > 100 µM
- TGI (SF-539 CNS): > 100 µM
- TGI (SK-MEL-2 melanoma): > 100 µM
- TGI (SK-MEL-28 melanoma): > 100 µM
- TGI (SK-MEL-5 melanoma): > 100 µM
- TGI (SK-OV-3 ovarian): > 100 µM
- TGI (SN12C renal): > 100 µM
- TGI (SNB-19 CNS): > 100 µM
- TGI (SNB-75 CNS): > 100 µM
- TGI (SR leukemia): > 71.4 µM
- TGI (SW-620 colon): > 100 µM
- TGI (T-47D breast): > 100 µM
- TGI (TK-10 renal): > 100 µM
- TGI (U251 CNS): > 100 µM
- TGI (UACC-257 melanoma): > 100 µM
- TGI (UACC-62 melanoma): > 100 µM
- TGI (UO-31 renal): > 100 µM
